The target in one data set is T1, hAMY3 receptor (Homo sapiens, UniProt O60896+P30988).
T1 sequence (P30988 25-474): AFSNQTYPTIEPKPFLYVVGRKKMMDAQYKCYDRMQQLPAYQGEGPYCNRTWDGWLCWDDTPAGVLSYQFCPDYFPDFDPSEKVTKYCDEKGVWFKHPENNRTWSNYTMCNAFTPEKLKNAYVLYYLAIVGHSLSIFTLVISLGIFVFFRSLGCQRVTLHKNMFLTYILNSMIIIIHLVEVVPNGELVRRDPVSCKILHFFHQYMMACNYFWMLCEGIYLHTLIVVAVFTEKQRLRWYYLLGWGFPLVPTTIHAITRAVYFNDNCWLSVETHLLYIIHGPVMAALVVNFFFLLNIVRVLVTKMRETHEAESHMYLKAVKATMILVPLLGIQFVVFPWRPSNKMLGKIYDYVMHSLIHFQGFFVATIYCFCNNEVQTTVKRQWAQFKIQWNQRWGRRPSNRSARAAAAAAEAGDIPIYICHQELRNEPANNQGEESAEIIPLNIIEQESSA
T1 sequence (O60896 24-148 partner): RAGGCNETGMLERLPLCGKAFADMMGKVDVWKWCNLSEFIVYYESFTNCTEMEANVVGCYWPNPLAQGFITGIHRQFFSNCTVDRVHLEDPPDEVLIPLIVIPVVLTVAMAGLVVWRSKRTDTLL
In words: cAMP assay for in vitro receptor activation, hAMY3-R. Format: cell-based. The note with it: cAMP assay, hAMY3 receptor; read-out: hAMY3R EC50. The essentials:
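Receptor activation was measured as cAMP accumulation in a monoclonal cell line stably overexpressing hAMY3. Stimulation with graded doses lasted 30 min at room temperature in the presence of 0.5 mM IBMX, with human amylin as positive control.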

For a further data set, the target named is hAM1 receptor (Homo sapiens, UniProt O60895+Q16602). In words: cAMP assay for in vitro receptor activation, hAM1-R. Format: cell-based. The note with it: cAMP assay, hAM1 receptor; read-out: hAM1R EC50. The essentials: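 cAMP accumulation was measured in a monoclonal cell line stably overexpressing the hAM1 receptor. Frozen aliquots were thawed and plated at 8000 cells/well in DPBS containing 0.05% casein and 0.5 mM IBMX.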
hAM1 receptor, sequence (Q16602 23-461): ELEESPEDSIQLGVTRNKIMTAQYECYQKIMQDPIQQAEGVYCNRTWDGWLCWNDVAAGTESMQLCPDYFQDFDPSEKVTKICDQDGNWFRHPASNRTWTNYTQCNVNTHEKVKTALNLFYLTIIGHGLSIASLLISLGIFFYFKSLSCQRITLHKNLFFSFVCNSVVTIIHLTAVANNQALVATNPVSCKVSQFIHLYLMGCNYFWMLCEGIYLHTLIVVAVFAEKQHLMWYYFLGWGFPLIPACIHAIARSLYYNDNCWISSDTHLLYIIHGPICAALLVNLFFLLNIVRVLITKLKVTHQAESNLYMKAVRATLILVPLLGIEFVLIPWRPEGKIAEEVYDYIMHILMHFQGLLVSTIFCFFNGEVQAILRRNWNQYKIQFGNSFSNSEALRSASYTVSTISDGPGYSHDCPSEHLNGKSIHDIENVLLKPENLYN
hAM1 receptor, sequence (O60895 43-175 partner): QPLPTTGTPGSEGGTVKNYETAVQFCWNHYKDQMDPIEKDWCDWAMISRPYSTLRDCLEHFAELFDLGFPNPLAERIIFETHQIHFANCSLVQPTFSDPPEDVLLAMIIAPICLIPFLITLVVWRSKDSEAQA

Data set [1] is described as follows: Physical stability of peptide analogues (Thioflavin T fibrillation). The note with it: maximum ThT signal normalized between hAMY maximum and buffer background; 40° C., shaking, four days; pH 7 per table title. Format: physicochemical. The gist of the method: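 Peptides in 50 mM sodium acetate pH 4 or 50 mM sodium phosphate pH 7 were preincubated 1 h, mixed with 4 μM ThT, held at 40° C with 700 rpm shaking before each read. Fluorescence (ex 450/em 480 nm) every 10 min for four days; LOESS-smoothed maximum signal normalized in percent between hAMY and buffer.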

Bridge positions count the residues as written; N and C are the ends. Square brackets hold non-standard residues; d marks the D form. Peptide text beside a SMILES is read from it. Hyp = O=C(O)[C@@H]1C[C@@H](O)CN1; Cit = NC(=O)NCCC[C@H](N)C(=O)O Where only a bound is given, the exact number is not on record here.

Take `CC[C@H](C)[C@H](NC(=O)[C@H](CCC(N)=O)NC(=O)[C@H](Cc1c[nH]cn1)NC(=O)[C@H](C)NC(=O)[C@H](CC(C)C)NC(=O)[C@H](CCCNC(N)=O)NC(=O)[C@H](CCC(N)=O)NC(=O)[C@@H](NC(=O)[C@@H](NC(=O)[C@@H]1CSSC[C@H](NC(=O)[C@@H](N)CCCCN)C(=O)N[C@@H](CC(N)=O)C(=O)N[C@@H]([C@@H](C)O)C(=O)N[C@@H](C)C(=O)N[C@@H]([C@@H](C)O)C(=O)N1)[C@@H](C)O)C(C)C)C(=O)N[C@@H](Cc1ccc(O)cc1)C(=O)N[C@@H](CCC(N)=O)C(=O)N[C@@H](Cc1ccccc1)C(=O)N[C@H](C(=O)N[C@@H](CC(=O)O)C(=O)N[C@@H](CCCCN)C(=O)N[C@@H](CC(=O)O)C(=O)N[C@@H](CCCCN)C(=O)N[C@@H](CC(=O)O)C(=O)N[C@@H](CC(N)=O)C(=O)N[C@H](C(=O)N1CCC[C@H]1C(=O)N1CCC[C@H]1C(=O)N[C@H](C(=O)N[C@@H](CC(N)=O)C(=O)N[C@H](C(=O)NCC(=O)N[C@@H](CO)C(=O)N[C@@H](CC(N)=O)C(=O)NCC(=O)N1C[C@H](O)C[C@H]1C(N)=O)C(C)C)[C@@H](C)O)C(C)C)[C@@H](C)O` [compound 254] (H-KCNTATCTVQ[Cit]LAHQIYQFTDKDKDNVPPTNVGSNG[Hyp]-NH2; disulfide 2-7): the EC50 on hAMY3 receptor is 0.006 nM; on hAM1 receptor it was above 5000 nM. Also, in data set [1], the “Max ThT signal (%)” value stood at 12.050%.
As to `CC[C@H](C)[C@H](NC(=O)[C@H](CCC(N)=O)NC(=O)[C@H](CC(=O)O)NC(=O)[C@H](C)NC(=O)[C@H](CC(C)C)NC(=O)[C@H](Cc1c[nH]c2ccccc12)NC(=O)[C@H](CC(N)=O)NC(=O)[C@@H](NC(=O)[C@@H](NC(=O)[C@@H]1CSSC[C@H](NC(=O)[C@@H](N)CCCNC(=N)N)C(=O)N[C@@H](CC(N)=O)C(=O)N[C@@H](C)C(=O)N[C@@H](CO)C(=O)N[C@@H]([C@@H](C)O)C(=O)N1)[C@@H](C)O)C(C)C)C(=O)N[C@H](C(=O)N[C@@H](CCC(N)=O)C(=O)N[C@@H](Cc1ccccc1)C(=O)N[C@@H](CO)C(=O)N[C@@H](CC(N)=O)C(=O)N[C@@H](CCCCN)C(=O)N[C@@H](CC(=O)O)C(=O)N[C@@H](CCCCN)C(=O)N[C@@H](C)C(=O)N[C@@H](CCC(N)=O)C(=O)N[C@H](C(=O)N[C@@H](CO)C(=O)N1CCC[C@H]1C(=O)N1CCC[C@H]1C(=O)N[C@H](C(=O)N[C@@H](CCC(=O)O)C(=O)N[C@H](C(=O)NCC(=O)N1CCC[C@H]1C(=O)N[C@@H](CC(N)=O)C(=O)N[C@@H](CO)C(=O)N1C[C@H](O)C[C@H]1C(N)=O)C(C)C)[C@@H](C)O)C(C)C)[C@@H](C)O` [compound 307] (H-RCNASTCTVNWLADQITQFSNKDKAQVSPPTEVGPNS[Hyp]-NH2; disulfide 2-7; N-terminus assumed), the EC50 at hAMY3 receptor is 0.01 nM; on hAM1 receptor it was above 5000 nM. For the same compound, the “Max ThT signal (%)” value in data set [1] came to 11.200%.
For the compound `CC[C@H](C)[C@H](NC(=O)[C@H](CCC(N)=O)NC(=O)[C@H](Cc1c[nH]cn1)NC(=O)[C@H](C)NC(=O)[C@H](CC(C)C)NC(=O)[C@H](Cc1c[nH]c2ccccc12)NC(=O)[C@H](CCC(N)=O)NC(=O)[C@@H](NC(=O)[C@@H](NC(=O)[C@@H]1CSSC[C@H](NC(=O)CN)C(=O)N[C@@H](CCCNC(=N)N)C(=O)N[C@@H]([C@@H](C)O)C(=O)NCC(=O)N[C@@H]([C@@H](C)O)C(=O)N1)[C@@H](C)O)C(C)C)C(=O)N[C@@H](Cc1ccc(O)cc1)C(=O)N[C@@H](CCC(N)=O)C(=O)N[C@@H](Cc1ccccc1)C(=O)N[C@H](C(=O)N[C@@H](CC(=O)O)C(=O)N[C@@H](CCCCN)C(=O)N[C@@H](CC(=O)O)C(=O)N[C@@H](CCCCN)C(=O)N[C@@H](CC(=O)O)C(=O)N[C@@H](CC(N)=O)C(=O)N[C@H](C(=O)N[C@@H](C)C(=O)N1CCC[C@H]1C(=O)N[C@@H](CCCNC(=N)N)C(=O)N[C@H](C(=O)N[C@@H](CC(N)=O)C(=O)N[C@H](C(=O)NCC(=O)N1CCC[C@H]1C(=O)N[C@@H](CC(N)=O)C(=O)NCC(=O)N[C@@H](Cc1ccc(O)cc1)C(N)=O)C(C)C)[C@@H](C)O)C(C)C)[C@@H](C)O` [compound 332] (H-GCRTGTCTVQWLAHQIYQFTDKDKDNVAPRTNVGPNGY-NH2; disulfide 2-7; N-terminus assumed), the concentration for a half-maximal effect (EC50) was 0.007 nM on hAMY3 receptor and above 5000 nM at hAM1 receptor. For the same compound, the “Max ThT signal (%)” value in data set [1] is 2.100%.
The like results for `CC[C@H](C)[C@H](NC(=O)[C@H](CCC(N)=O)NC(=O)[C@H](CC(=O)O)NC(=O)[C@H](C)NC(=O)[C@H](CC(C)C)NC(=O)[C@H](Cc1c[nH]c2ccccc12)NC(=O)[C@H](C)NC(=O)[C@@H](NC(=O)[C@@H](NC(=O)[C@@H]1CSSC[C@H](NC(=O)[C@@H](N)CCCCN)C(=O)N[C@@H](CC(N)=O)C(=O)N[C@@H]([C@@H](C)O)C(=O)N[C@@H](CO)C(=O)N[C@@H]([C@@H](C)O)C(=O)N1)[C@@H](C)O)C(C)C)C(=O)N[C@H](C(=O)N[C@@H](CCC(N)=O)C(=O)N[C@@H](Cc1ccccc1)C(=O)N[C@@H](CO)C(=O)N[C@@H](CC(N)=O)C(=O)N[C@@H](CCCCN)C(=O)N[C@@H](CC(=O)O)C(=O)N[C@@H](CCCCN)C(=O)N[C@@H](C)C(=O)N[C@@H](CCC(N)=O)C(=O)N[C@H](C(=O)N[C@@H](CO)C(=O)N1CCC[C@H]1C(=O)N1CCC[C@H]1C(=O)N[C@H](C(=O)N[C@@H](CCC(=O)O)C(=O)N[C@H](C(=O)NCC(=O)N1CCC[C@H]1C(=O)N[C@@H](CC(N)=O)C(=O)N[C@@H](CO)C(=O)N1C[C@H](O)C[C@H]1C(N)=O)C(C)C)[C@@H](C)O)C(C)C)[C@@H](C)O` [compound 306] (H-KCNTSTCTVAWLADQITQFSNKDKAQVSPPTEVGPNS[Hyp]-NH2; disulfide 2-7; N-terminus assumed) were, in that order, 0.003 nM, above 5000 nM and 3.000%.
On the same counts, the results for `CC[C@H](C)[C@H](NC(=O)[C@H](CCC(N)=O)NC(=O)[C@H](Cc1c[nH]cn1)NC(=O)[C@H](C)NC(=O)[C@H](CC(C)C)NC(=O)[C@H](CCCNC(N)=O)NC(=O)[C@H](CCC(N)=O)NC(=O)[C@@H](NC(=O)[C@@H](NC(=O)[C@@H]1CSSC[C@H](NC(=O)CN)C(=O)N[C@@H](CCCNC(=N)N)C(=O)N[C@@H](Cc2ccccc2)C(=O)NCC(=O)N[C@@H]([C@@H](C)O)C(=O)N1)[C@@H](C)O)C(C)C)C(=O)N[C@@H](Cc1ccc(O)cc1)C(=O)N[C@@H](CCC(N)=O)C(=O)N[C@@H](Cc1ccccc1)C(=O)N[C@H](C(=O)N[C@@H](CC(=O)O)C(=O)N[C@@H](CCCCN)C(=O)N[C@@H](CC(=O)O)C(=O)N[C@@H](CCCCN)C(=O)N[C@@H](CC(=O)O)C(=O)N[C@@H](CC(N)=O)C(=O)N[C@H](C(=O)N[C@@H](C)C(=O)N1CCC[C@H]1C(=O)N[C@@H](CCCNC(=N)N)C(=O)N[C@H](C(=O)N[C@@H](CC(N)=O)C(=O)N[C@H](C(=O)N[C@@H](CO)C(=O)N1CCC[C@H]1C(=O)N[C@@H](CCC(N)=O)C(=O)NCC(=O)N1C[C@H](O)C[C@H]1C(N)=O)[C@@H](C)CC)[C@@H](C)O)C(C)C)[C@@H](C)O` [compound 291] (H-GCRFGTCTVQ[Cit]LAHQIYQFTDKDKDNVAPRTNISPQG[Hyp]-NH2; disulfide 2-7) are 0.064 nM, above 5000 nM and 19.200%.
As to `CC[C@H](C)[C@H](NC(=O)[C@H](CCC(N)=O)NC(=O)[C@H](Cc1c[nH]cn1)NC(=O)[C@H](C)NC(=O)[C@H](CC(C)C)NC(=O)[C@H](CCCNC(N)=O)NC(=O)[C@H](CCC(N)=O)NC(=O)[C@@H](NC(=O)[C@@H](NC(=O)[C@@H]1CSSC[C@H](NC(=O)[C@@H](N)CCCCN)C(=O)N[C@@H](CC(N)=O)C(=O)N[C@@H]([C@@H](C)O)C(=O)N[C@@H](C)C(=O)N[C@@H]([C@@H](C)O)C(=O)N1)[C@@H](C)O)C(C)C)C(=O)N[C@@H](Cc1ccc(O)cc1)C(=O)N[C@@H](CCC(N)=O)C(=O)N[C@@H](Cc1ccccc1)C(=O)N[C@H](C(=O)N[C@@H](CC(=O)O)C(=O)N[C@@H](CCCCN)C(=O)N[C@@H](CC(=O)O)C(=O)N[C@@H](CCCCN)C(=O)N[C@@H](CC(=O)O)C(=O)N[C@@H](CC(N)=O)C(=O)N[C@H](C(=O)N[C@@H](C)C(=O)N[C@@H](C)C(=O)N1CCC[C@H]1C(=O)N[C@H](C(=O)N[C@@H](CC(N)=O)C(=O)N[C@H](C(=O)NCC(=O)N[C@@H](CO)C(=O)N[C@@H](CC(N)=O)C(=O)NCC(=O)N1C[C@H](O)C[C@H]1C(N)=O)C(C)C)[C@@H](C)O)C(C)C)[C@@H](C)O` [compound 262] (H-KCNTATCTVQ[Cit]LAHQIYQFTDKDKDNVAAPTNVGSNG[Hyp]-NH2; disulfide 2-7; N-terminus assumed), the EC50 at hAMY3 receptor was 0.014 nM; on hAM1 receptor it was above 5000 nM. Also, in data set [1], the “Max ThT signal (%)” value came out at 9.550%.

The values above are taken from patent US12139520B2 (priority 2020, dated 2024).
